Read-outs that look alike come from different tables or passages of the source.
Tests used:
[1] = target: T1, MAT2A homodimer (Homo sapiens, UniProt P31153); test: MAT2A biochemical assay (phosphate release, PiColorLock Gold); conditions: recombinant MAT2A homodimer, 60 min pre-incubation, 25° C.; read-out: Enzyme Inhibition
T1 construct: inferred from Ni sepharose purification and imidazole elution; made in house; host or cells: SF9 insect cells, recombinant baculovirus (Bac to Bac, pFASTBAC1)
Procedure: Mat2A protein was expressed by recombinant baculovirus in SF9 infected cells using the Bac to Bac system cloned into the pFASTBAC1 vector (Invitrogen, Carlsbad, CA). Recombinant MAT2A was isolated from the cell lysate of 150 g of infected cells using HP Ni sepharose column chromatography. Recombinant MAT2A homodimer was eluted with 250 and 500 mM imidazole, and fractions containing MAT2A were identified by sodium dodecyl sulfate polyacrylamide gel electrophoresis and pooled.
For determination of the inhibitory potency of compounds against the MAT2A homodimer, protein was diluted to 4 μg/mL in assay buffer (50 mM Tris, pH 8.0, 50 mM KCl, 15 mM MgCl2, 0.3 mM EDTA, 0.005% [w/v] bovine serum albumin [BSA]). Test compound was prepared in 100% dimethyl sulfoxide (DMSO) at 50× the desired final concentration. A 1 μL volume of compound dilution was added to 40 μL of enzyme dilution and the mixture was allowed to equilibrate for 60 minutes at 25° C. The enzymatic assay was initiated by the addition of 10 μL of substrate mix (500 μM ATP, pH 7.0, 400 μM L-methionine in 1× assay buffer), and the mixture was incubated for a further 60 minutes at 25° C. The reaction was halted and the liberated phosphate released by the enzyme in stoichiometric amounts by the production of S-adenosyl methionine (SAM) was measured using the PiColorLock Gold kit (Innova Biosciences, UK). Absolute product amounts were determined by comparison to a standard curve of potassium phosphate buffer, pH 8.0.

[2] = system: HCT116 MTAP−/−; test: Inhibition of cellular proliferation (Cell Titer Glo), HCT116 MTAP-/-; type: cell-based; conditions: Homo sapiens, HCT-116, 96 h, 4 days, read-out: 4 Day Relative Growth Inhibition (MTAP −/−)
Procedure: (§1) Test compound impact on cancer cell growth was assessed by treating cancer cells with compound for 4 days and then measuring proliferation using an ATP-based cell proliferation readout (Cell Titer Glo, Promega Corporation).
(§2) In a typical assay an isogenic pair of HCT116 human colon carcinoma cell lines which vary only in MTAP deletion status (HCT116 MTAP+/+ and HCT116 MTAP−/−) were plated in 96-well dishes at appropriate cell density. Following 24 hours, cells were then treated with the candidate MAT2A inhibitor. Prior to addition to cells, the compound was first serially diluted in 100% DMSO, typically as a 3-fold serial dilution starting at 500× top dose with 10 dose points including DMSO only control. Compound was then transferred to a working stock plate in cell culture media by adding 5 μL of compound in DMSO to 495 μL of cell culture media. This working stock was then added to cells via a further 5-fold dilution, by adding 25 μL of working stock to 100 μL of cells in culture media. Following compound addition, cells were incubated at 37° C./5% CO2 for 4 days.
(§3) To measure inhibition of cellular proliferation, cells were allowed to equilibrate to room temperature for 30 minutes, and were then treated with 125 μL of Cell Titer Glo reagent. The plate was then covered with aluminum foil and shaken for 15 minutes to ensure complete mixing and full cell lysis. Luminescent signal was then measured using a plate-based luminometer Veritas version 1.9.2 using ATP standard curve to confirm assay reproducibility from run to run. This luminescence measure was converted to a proliferation index by subtracting from each data point the ATP luminescence signal measured from a bank (no cells) well and dividing by the ATP luminescence signal measured in 0.2% DMSO control well adjusted for signal in blank well. Compound activity was then represented as a percentage change in proliferation relative to a within-plate DMSO control against log 10 of compound concentration in molar (M) units.

[3] = system: HCT116 MTAP+/+; test: Inhibition of cellular proliferation (Cell Titer Glo), HCT116 MTAP+/+; type: cell-based; conditions: Homo sapiens, HCT-116, 96 h, 4 days, read-out: 4 Day Relative Growth Inhibition (MTAP +/+)
Procedure: as §1, §2, §3

[4] = system: MAT2A activity (SAM) in HCT116 cells with deleted MTAP gene; test: Cellular assay of target engagement (SAM) by LC-MS/MS; type: cell-based; conditions: Homo sapiens, read-out: Cell 72 h SAM Inhibition (MTAP −/−)
Procedure: Measurement of MAT2A activity in cells was made by direct quantitation of the abundance of the product of its enzymatic activity, SAM. Cancer cells were treated with candidate MAT2A inhibitors for a suitable incubation period, and the cells were then lysed using a reagent which quenched any further enzyme activity. Soluble metabolites including SAM were collected and SAM itself was directly measured from the lysate using quantitative LC-MS/MS.
A typical assay was performed using an HCT116 human colon carcinoma cell line which was genetically engineered to delete the MTAP gene (commercially available from Horizon Discovery). This cell line was utilized because it was determined that loss of the MTAP gene predicts sensitivity to MAT2A inhibitors. Cells were plated in 96-well dishes at appropriate cell density. Following 24 hours, cells were then treated with the candidate MAT2A inhibitor. Prior to addition to cells, the compound was first serially diluted in 100% DMSO, typically as a 3-fold serial dilution starting at 500× top dose with 10 dose points including DMSO only control. Compound was then transferred to a working stock plate in cell culture media by adding 5 μL of compound in DMSO to 495 μL of cell culture media. This working stock was then added to cells via a further 5-fold dilution, by adding 25 μL of working stock to 100 μL of cells in culture media. Following compound addition, cells were incubated at 37° C./5% CO2 for 72 hrs.
To quantitate SAM levels following compound treatment, cells were gently washed once in ammonium carbonate buffer (75 mM at pH 7.4), placed on dry ice, and lysed with metabolite extraction buffer (80% cold methanol and 20% water (v/v) with acetic acid at 1M final concentration with 200 ng/mL deuterated d3-SAM as internal control). Following centrifugation at 4° C. at 3,200 rpm for 30 minutes, the supernatant was collected and stored at −80° C. until analysis by Liquid Chromatography with tandem Mass Spectrometry (LC-MS/MS). LC-MS/MS analysis was performed using an API6500 Mass Spectrometer (Sciex, Framingham, MA, USA) operating in positive ion spray mode and equipped with a Waters UPLC Acquity (Waters, Milford, MA, USA) BEH Amide column. Multiple Reaction Monitoring data was acquired for SAM and the d3-SAM standard, using a mass transition pair at m/z 399.2→250.1 and 402.2→250.1, respectively. In a typical LC-MS/MS analysis, the initial flow rate was 0.5 ml/min of 25% mobile phase A (acetonitrile and water at 5:95 (v/v) with 1% formic acid and 10 mM ammonium acetate) and 75% mobile phase B (acetonitrile and water at 95:5 (v/v) with 1% formic acid and 10 mM ammonium acetate), 0.2-0.5 minutes with 75%-35% mobile phase B, 25%-65% mobile phase A, at 0.5 min 65% mobile phase A and 35% mobile phase B, 1.0-1.1 minutes with 35%-75% mobile phase B, 65%-25% mobile phase A, at 1.1 min 25% mobile phase A and 75% mobile phase B with a total run time of 1.5 minutes.

[5] = HCT-116, HCT116 MTAP −/−, 72 hrs

T1 sequence (P31153 whole entry): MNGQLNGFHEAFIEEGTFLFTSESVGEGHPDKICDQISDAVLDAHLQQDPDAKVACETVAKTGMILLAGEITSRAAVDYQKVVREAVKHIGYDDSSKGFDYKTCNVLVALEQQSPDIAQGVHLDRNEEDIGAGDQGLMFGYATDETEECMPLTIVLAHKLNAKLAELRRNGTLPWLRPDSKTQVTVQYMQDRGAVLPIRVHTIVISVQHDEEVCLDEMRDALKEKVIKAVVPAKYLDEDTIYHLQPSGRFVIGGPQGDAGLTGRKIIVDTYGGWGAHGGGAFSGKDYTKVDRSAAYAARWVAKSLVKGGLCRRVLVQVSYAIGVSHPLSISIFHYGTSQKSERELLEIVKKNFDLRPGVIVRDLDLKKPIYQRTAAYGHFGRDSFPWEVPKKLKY

Row | IC50 [1] | IC50 [2] | IC50 [3] | IC50 [4, 5] | SMILES | IC50 ([4]; HCT-116, 72 h)
1 | < 100 nM | 100 to 1000 nM | ≥ 1000 nM | < 100 nM | Cn1cc2cc(-n3nc4ccc(OCC(F)F)nc4c(-c4ccccc4)c3=O)ccc2n1 [Example 133] | –
2 | < 100 nM | ≥ 1000 nM | ≥ 1000 nM | 100 to 1000 nM | Cn1cc2cc(-n3nc4ccc(OCC(F)F)nc4c(-c4ccncc4)c3=O)ccc2n1 [Example 134] | –
3 | < 100 nM | 100 to 1000 nM | ≥ 1000 nM | < 100 nM | CCOc1ccc2nn(-c3ccc(OC)cc3)c(=O)c(-c3ccc(OC(F)F)cc3)c2n1 [Example 135] | –
4 | < 100 nM | 100 to 1000 nM | ≥ 1000 nM | 100 to 1000 nM | CCOc1ccc2nn(-c3ccc(OC)cc3)c(=O)c(-c3ccc(OC(F)(F)F)nc3)c2n1 [Example 136] | –
5 | < 100 nM | < 100 nM | ≥ 1000 nM | < 100 nM | Cn1cc2cc(-n3nc4ccc(OCC5CC5)nc4c(-c4ccc(OC(F)F)cc4)c3=O)ccc2n1 [Example 137] | –
6 | < 100 nM | < 100 nM | ≥ 1000 nM | < 100 nM | CC(C)Oc1ccc2nn(-c3ccc4nn(C)cc4c3)c(=O)c(-c3ccc(OC(F)F)cc3)c2n1 [Example 138] | –
7 | < 100 nM | < 100 nM | 100 to 1000 nM | < 100 nM | [2H]C([2H])([2H])Oc1ccc(-c2c(=O)n(-c3ccc4nn(C)cc4c3)nc3ccc(OCC(F)F)nc23)cn1 [Example 139] | –
8 | < 100 nM | < 100 nM | ≥ 1000 nM | 100 to 1000 nM | Cn1cc2cc(-n3nc4ccc(OCC(F)F)nc4c(-c4cccc(Cl)c4)c3=O)ccc2n1 [Example 140] | –
9 | < 100 nM | 100 to 1000 nM | ≥ 1000 nM | < 100 nM | CC(C)COc1ccc2nn(-c3ccc4nn(C)cc4c3)c(=O)c(-c3ccc(OC(F)F)cc3)c2n1 [Example 141] | –
10 | < 100 nM | < 100 nM | ≥ 1000 nM | < 100 nM | O=c1c(-c2ccc(Cl)cc2)c2nc(OCC(F)F)ccc2nn1-c1ccc2ncsc2c1 [Example 143] | –
11 | < 100 nM | < 100 nM | ≥ 1000 nM | < 100 nM | COc1ccc(-c2c(=O)n(-c3ccc4ncsc4c3)nc3ccc(OCC(F)F)nc23)cc1 [Example 144] | –
12 | < 100 nM | < 100 nM | ≥ 1000 nM | < 100 nM | CCOc1ccc2nn(-c3ccc4ncsc4c3)c(=O)c(-c3ccc(OC(F)F)cc3)c2n1 [Example 145] | –
13 | < 100 nM | < 100 nM | ≥ 1000 nM | < 100 nM | CC(C)Oc1ccc2nn(-c3ccc4ncsc4c3)c(=O)c(-c3ccc(OC(F)F)cc3)c2n1 [Example 146] | –
14 | < 100 nM | 100 to 1000 nM | ≥ 1000 nM | 100 to 1000 nM | O=c1c(-c2ccc(C3CC3)nc2)c2nc(OCC(F)F)ccc2nn1-c1ccc2ncsc2c1 [Example 147] | –
15 | < 100 nM | 100 to 1000 nM | ≥ 1000 nM | 100 to 1000 nM | O=c1c(-c2ccc(OC(F)F)nc2)c2nc(OCC(F)F)ccc2nn1-c1ccc2ncsc2c1 [Example 148] | –
16 | < 100 nM | 100 to 1000 nM | ≥ 1000 nM | < 100 nM | Cn1cc2cc(-n3nc4ccc(OCC(F)F)nc4c(C4=CCC(O)CC4)c3=O)ccc2n1 (stereo not drawn) [Example 149] | –
17 | < 100 nM | < 100 nM | ≥ 1000 nM | < 100 nM | Cn1cc2cc(-n3nc4ccc(OCC(F)F)nc4c(-c4ccc5[nH]ccc5c4)c3=O)ccc2n1 [Example 150] | –
18 | < 100 nM | < 100 nM | ≥ 1000 nM | < 100 nM | [2H]C([2H])([2H])Oc1ccc(-c2c(=O)n(-c3ccc4ncsc4c3)nc3ccc(OCC(F)F)nc23)cc1 [Example 151] | –
19 | < 100 nM | < 100 nM | 100 to 1000 nM | < 100 nM | COC1CC=C(c2c(=O)n(-c3ccc4nn(C)cc4c3)nc3ccc(OCC(F)F)nc23)CC1 (stereo not drawn) [Example 152] | –
20 | 100 to 1000 nM | ≥ 1000 nM | ≥ 1000 nM | > 1000 nM | Cn1cc2cc(-n3nc4ccc(OCC(F)F)nc4c(-c4ccn[nH]4)c3=O)ccc2n1 [Example 153] | –
21 | < 100 nM | < 100 nM | ≥ 1000 nM | < 100 nM | Cn1cc2cc(-n3nc4ccc(NCC(F)(F)F)nc4c(-c4ccc(Cl)cc4)c3=O)ccc2n1 [Example 154] | –
22 | < 100 nM | < 100 nM | ≥ 1000 nM | < 100 nM | Cn1cc2cc(-n3nc4ccc(NC5CC5)nc4c(-c4ccc(Cl)cc4)c3=O)ccc2n1 [Example 155] | –
23 | < 100 nM | < 100 nM | ≥ 1000 nM | < 100 nM | Cn1cc2cc(-n3nc4ccc(NCC(F)F)nc4c(-c4ccc(Cl)cc4)c3=O)ccc2n1 [Example 156] | –

Row | SMILES | IC50 [1] | IC50 [2] | IC50 [3] | IC50 [4, 5] | IC50 ([4]; HCT-116, 72 h)
24 | Cn1cc2cc(-n3nc4c(COC5CCCCO5)cc(OCC(F)F)nc4c(-c4ccc(OC(F)F)cc4)c3=O)ccc2n1 (stereo not drawn) [Example 142, 6-(2,2-difluoroethoxy)-4-(4-(difluoromethoxy)phenyl)-2-(2-methyl-2H-indazol-5-yl)-8-(((tetrahydro-2H-pyran-2-yl)oxy)methyl)pyrido[3,2-c]pyridazin-3(2H)-one] | < 100 nM | 100 to 1000 nM | ≥ 1000 nM | – | 100 to 1000 nM
